Assay results reported in patent publication US7666391B2, “Breast homing peptides and methods of identifying same using aminopeptidase P” (Burnham Institute for Medical Research, priority 2001, dated 2010).
Square brackets hold non-standard residues; d marks the D form. Ends that are not written are not given here. Peptide text beside a SMILES is read from it. * marks the point of attachment. X1 = NC(Cc1ccccc1)C(O)C(=O)*; βAla = NCCC(=O)O

Key:
[1] = molecular target: T1, rat membrane-bound aminopeptidase P (Rattus norvegicus, UniProt Q99MA2); conditions: cited from earlier work; for IC50: 0.5 mM arg = Pro-Pro in 0.1 M Hepes, pH 8.0, triplicate
T1 sequence (Q99MA2 23-650): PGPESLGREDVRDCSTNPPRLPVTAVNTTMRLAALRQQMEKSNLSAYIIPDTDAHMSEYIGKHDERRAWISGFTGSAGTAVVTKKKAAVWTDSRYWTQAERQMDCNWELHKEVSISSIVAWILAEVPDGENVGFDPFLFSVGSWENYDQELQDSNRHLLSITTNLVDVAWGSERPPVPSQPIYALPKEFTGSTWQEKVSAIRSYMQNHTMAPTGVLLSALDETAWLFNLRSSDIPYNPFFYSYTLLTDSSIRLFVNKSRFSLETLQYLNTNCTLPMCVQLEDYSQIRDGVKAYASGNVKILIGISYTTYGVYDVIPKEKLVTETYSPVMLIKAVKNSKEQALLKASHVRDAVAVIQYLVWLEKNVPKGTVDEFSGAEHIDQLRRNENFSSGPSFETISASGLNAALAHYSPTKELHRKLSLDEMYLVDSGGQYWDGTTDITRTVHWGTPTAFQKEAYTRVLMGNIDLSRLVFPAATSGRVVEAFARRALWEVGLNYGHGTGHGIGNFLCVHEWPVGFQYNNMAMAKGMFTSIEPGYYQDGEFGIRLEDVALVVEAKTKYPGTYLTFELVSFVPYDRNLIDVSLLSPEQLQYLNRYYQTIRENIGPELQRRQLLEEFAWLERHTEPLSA

aminopeptidase P = experiment: Binding of aminopeptidase P cDNA fragment phage to wells coated with […] peptide, with competitors; parameters: species or system human; conditions: 1 mg free peptide; apstatin 10 μg/ml; IgG 10 μg/ml
Experimental: The peptide was synthesized in a Symphony synthesizer (Rainin Instruments; Emeryville, Calif.), cyclized, and purified by HPLC. The peptide was immobilized on a 96 well Reacti-Bind® polystyrene strip plate (Pierce; Rockford, Ill.). The wells were then treated three times×200 μl SuperBlock® blocking buffer (Pierce).
A human breast carcinoma cDNA library on T7 phage obtained from Novagen was amplified in a single step by infecting BLT 5615 bacteria. Phage suspension (100 μl, 10^9 pfu/ml) in PBS was incubated in the wells for one hour; the wells were then washed five times with 200 μl PBS and once with elution buffer (Novagen) to elute phage bound with low and intermediate affinity. Phage bound to the immobilized peptide were subsequently recovered by incubating BLT 5615 bacteria in the wells for 10 minutes at room temperature.

[2] = molecular target: bovine membrane-bound aminopeptidase P; conditions: cited from earlier work; for IC50: 0.5 mM arg = Pro-Pro in 0.1 M Hepes, pH 8.0, triplicate
[3] = molecular target: human membrane-bound aminopeptidase P (Homo sapiens, UniProt O43895); conditions: 0.5 mM arg = Pro-Pro in 0.1 M Hepes, pH 8.0; triplicate; cited from earlier work
mitochondrial membranes = experiment: Mitochondrial swelling assay; conditions: at a concentration of 10 μM
Text: In one embodiment, the invention provides a conjugate in which the antimicrobial peptide portion promotes disruption of mitochondrial membranes when internalized by eukaryotic cells. In particular, such an antimicrobial peptide preferentially disrupts mitochondrial membranes as compared to eukaryotic membranes. Mitochondrial membranes, like bacterial membranes but in contrast to eukaryotic plasma membranes, have a high content of negatively charged phospholipids. An antimicrobial peptide can be assayed for activity in disrupting mitochondrial membranes using, for example, an assay for mitochondrial swelling (as described in Example I) or another assay well known in the art. […] An antimicrobial peptide that induces significant mitochondrial swelling at, for example, 50 μM, 40 μM, 30 μM, 20 μM, 10 μM, or less, is considered a peptide that promotes disruption of mitochondrial membranes.

breast tissue [4] = experiment: In vivo phage homing: recovery of injected phage from tissues; parameters: species or system mice; conditions: breast tissue as compared to control pancreatic tissue
Experimental: A CX7C library (10^9 plaque forming units) was injected into the tail vein of mice; after seven minutes, the mice were perfused through the heart, and phage rescued from breast tissue. The rescued phage were then amplified and re-injected in four additional consecutive rounds. The number of plaque forming units (pfu) recovered from breast tissue is shown (black bars). As a control, non-recombinant T7 phage were injected (white bars). In round five, the number of pfu of phage recovered from the pancreas also was determined (gray bar).
(§1) The number of pfu recovered from each organ is shown.
A phage display peptide library with the general structure of CX7C, where C is cysteine and X is any amino acid, was constructed in T7 phage essentially as follows. Briefly, complementary oligonucleotides that encoded the random peptide insert as NNK codons, and had 5′EcoRI and 3′HindIII overhangs, were annealed. The resulting double stranded DNA was phosphorylated with T4 polynucleotide kinase (Novagen; Madison, Wis.) and ligated into 1 ug of T7Select415-1b vector arms. The ligated product was directly added to 50 μl of packaging extract and incubated for two hours, yielding 10^8 pfu total recombinants. The recombinants were amplified in 500 ml of liquid culture. […] (Oxford, U.K.: Oxford University Press), 2001.
(§2) In vivo phage selection was performed as described previously with a few modifications. Briefly, mice were anesthetized with avertin and then injected intravenously with 10^9 plaque forming units (pfu) from the CX7C library. Seven minutes after the injection, the mice were perfused through the heart with 10 ml of phosphate buffered saline (PBS). Mammary tissue was then excised, weighed, and homogenized using a Medimachine (Dako, Denmark). The resulting single cells were spun down at 1500 rpm and washed five times with PBS. Phage adherent to the cells were rescued by infecting BL21 bacteria (Novagen), and the phage quantified by plaque assay.

breast tissue [5] = experiment: In vivo blocking of breast homing of phage by co-injected agents; conditions: mice
Experimental: as §1, §2

[6] = molecular target: monkey membrane-bound aminopeptidase P; conditions: 0.5 mM arg = Pro-Pro in 0.1 M Hepes, pH 8.0; triplicate; cited from earlier work

Sequence of human membrane-bound aminopeptidase P (O43895 22-649): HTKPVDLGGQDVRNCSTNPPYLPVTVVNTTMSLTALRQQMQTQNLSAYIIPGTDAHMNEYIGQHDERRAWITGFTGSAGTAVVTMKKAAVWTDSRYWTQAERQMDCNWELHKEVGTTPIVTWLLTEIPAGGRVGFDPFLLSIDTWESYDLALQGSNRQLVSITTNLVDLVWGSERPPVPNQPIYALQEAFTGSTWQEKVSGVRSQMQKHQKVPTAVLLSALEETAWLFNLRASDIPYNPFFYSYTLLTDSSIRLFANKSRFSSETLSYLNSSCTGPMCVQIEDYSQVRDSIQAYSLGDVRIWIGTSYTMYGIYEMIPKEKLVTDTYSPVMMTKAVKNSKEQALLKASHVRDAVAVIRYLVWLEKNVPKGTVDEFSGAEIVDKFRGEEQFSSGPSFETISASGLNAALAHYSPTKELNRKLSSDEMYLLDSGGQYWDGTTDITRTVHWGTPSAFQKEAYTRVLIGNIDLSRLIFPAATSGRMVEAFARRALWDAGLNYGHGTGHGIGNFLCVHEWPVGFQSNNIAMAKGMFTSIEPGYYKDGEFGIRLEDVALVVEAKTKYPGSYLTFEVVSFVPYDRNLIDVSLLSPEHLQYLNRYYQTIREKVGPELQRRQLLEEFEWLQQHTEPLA

| Molecule | IC50 [1] [µM] | IC50 [2] [µM] | other results |
| --- | --- | --- | --- |
| C[C@H](NC(=O)[C@@H]1CCCN1C(=O)[C@@H]1CCCN1C(=O)[C@@H](O)[C@H](N)Cc1ccccc1)C(N)=O [Compound 1, apstatin] | 4.1 | 9.4 | Ki ([1]; Yoshimoto et al. 1994): 2.6 µM; effect on binding of aminopeptidase P encoding phage to insolubilized CPGPEGAGC peptide (aminopeptidase P): blocked; Ki ([2]; in brackets in the IC50 cell of Table 2): 7.8 µM |
| CC(C)C[C@@H](N)[C@@H](O)C(=O)N1CCC[C@H]1C(=O)N[C@@H](C)C(N)=O [Compound 7] | 19 | 50 | – |
| CC(NC(=O)C1CCCN1C(=O)C1CCCC1S)C(N)=O (stereo not shown) [Compound 10] | 3.4 | – | IC50 [3]: 29 µM |
| CC(C)C[C@H](N)[C@@H](O)C(=O)N1CCC[C@H]1C(=O)N[C@@H](C)C(N)=O [Compound 6] | 0.31 | 2.1 | – |
| CC(C)C[C@H](N)[C@H](O)C(=O)N1CCC[C@H]1C(=O)N[C@@H](C)C(N)=O [Compound 8] | 100 | 470 | – |
| NC(=O)C1CCCN1C(=O)C1CCCN1C(=O)C(O)C(N)Cc1ccccc1 (stereo not shown) [Compound 3] | 390 | 1300 | – |
| D(KLAKLAK)2 | – | – | mitochondrial swelling (mitochondrial membranes): marked mitochondrial swelling |
| C[C@H](NC(=O)[C@@H]1CCCN1C(=O)C1CCCCC1C(=O)NO)C(N)=O (single isomer, unassigned) [Compound 12] | 37 | 50 | – |
| CRTS [CRTS (SEQ ID NO: 4)] | – | – | selective homing identified by in vivo panning (breast tissue [4]): selectively homing to breast tissue |
| CRSS [CRSS (SEQ ID NO: 3)] | – | – | selective homing identified by in vivo panning (breast tissue [4]): selectively homing to breast tissue |
| CPGPEGAGC (also: cyclized (mode not given here)) [breast homing cyclic peptide, synthesized, cyclized and purified by HPLC] | – | – | effect of coinjection on recovery of CPGPEGAGC phage from breast tissue (breast tissue [5]; 0.5 ml of 2 mg/ml free peptide coinjected): markedly reduced; effect on breast homing / recovery of CRSS phage (breast tissue [5]; anti-aminopeptidase P antiserum or 1 mg free peptide): no effect; effect on binding of aminopeptidase P encoding phage to insolubilized CPGPEGAGC peptide (aminopeptidase P): blocked; selective homing identified by in vivo panning (breast tissue [4]): selectively homing to breast tissue |
| CC(C)C[C@@H](N)[C@H](O)C(=O)N1CCC[C@H]1C(=O)N[C@@H](C)C(N)=O [Compound 5] | 0.56 | 4.5 | – |
| C[C@H](NC(=O)[C@@H]1CCCN1C(=O)C1CCCC1S)C(N)=O (single isomer, unassigned) [Compound 11] | 150 | 300 | IC50 [3]: 390 µM; IC50 [6]: 300 µM |
| CC(NC(=O)C1CCCN1C(=O)C1CCCN1C(=O)C(O)C(N)Cc1ccccc1)C(=O)NCCC(=O)NC(CS)C(N)=O (stereo not shown) [Compound 4] (X1-PPA[βAla]C-NH2; configuration not given here) | 0.66 | – | – |
